One experiment has as its target T1, human MRGPRX2 (Homo sapiens, UniProt Q96LB1).
T1 construct: expressed in transfected cells
T1 sequence (Q96LB1 1-330): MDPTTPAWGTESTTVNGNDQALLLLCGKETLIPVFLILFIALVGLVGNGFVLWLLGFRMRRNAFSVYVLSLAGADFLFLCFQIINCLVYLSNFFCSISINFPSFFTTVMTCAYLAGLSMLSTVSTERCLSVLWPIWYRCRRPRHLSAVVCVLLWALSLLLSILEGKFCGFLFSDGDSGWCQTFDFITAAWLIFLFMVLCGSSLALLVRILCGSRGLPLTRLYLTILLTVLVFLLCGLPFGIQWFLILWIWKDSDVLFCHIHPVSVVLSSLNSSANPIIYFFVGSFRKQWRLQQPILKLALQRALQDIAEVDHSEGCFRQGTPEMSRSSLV
Nature of the experiment: MRGPRX2 antagonist activity, IP-One HTRF assay in CHO cells expressing human MRGPRX2 versus Cortistatin-14. Format: cell-based.
Conditions: not given
As for the experimental part: CHO cells stably transfected to express human MRGPRX2 were maintained in an incubator at 37° C. with 5% CO2 and grown in F12 (HAM) media with 10% fetal bovine serum (FBS), 1% Glutamax, 1% penicillin/streptomycin, 800 μg/mL Geneticin (G418), and 300 μg/mL Hygromycin B. Cells were plated in a 384-well assay plate at 20,000 cells per well in 12 μL of Opti-MEM and kept in an incubator overnight. On the day of the assay, compounds solubilized at 10 mM in DMSO were added as a 10-point curve (30 uM final top concentration with 1:3 serial dilutions) using a Tecan D300E digital dispenser. Agonists were diluted in assay buffer (final concentrations of 5.7 mM Tris-HCl, 43 mM NaCl, 50 mM LiCI, pH=8) and 2 μL of the agonist Cortistatin-14 (CPC Scientific, catalog CORT-002) are added to each well. Final concentrations of agonists were […] Cortistatin-14. Final concentrations of DMSO were kept consistent across the plate. Plates were incubated in the dark for 1 hr at 37° C. and then for 1 hr at room temperature. IP-1 standards and HTRF detection reagents were added according to the IP-One—Gq Kit purchased from Cisbio (part number 621PAPEJ) and incubated in the dark for 1 hr at room temperature. The plate was read on a Molecular Devices SpectraMax iD5 plate reader. The HTRF ratio was calculated from the raw data and graphed using GraphPad Prism to calculate an IC50 value for each compound.
The activity ranges are denoted as follows: “+++++” denotes antagonist activity <100 nM; “++++” denotes antagonist activity between 100 and 500 nM; “+++” denotes activity between 501 and 1000 nM; “++” denotes activity between 1001 and 2500 nM; and “+” denotes activity >2500 nM.
For orientation: TR-FRET usually uses a lanthanide donor and a delayed reading to cut background.
Consider `Cn1nccc1C(=O)N[C@H]1CC[C@@H](Nc2ccc(C#N)c(C(F)(F)F)c2)CC1` [1-17], for which the IC50 was 100 to 500 nM. In turn, `CN(c1ccc(C(=O)N[C@H]2CC[C@@H](Nc3ccc(C#N)c(C(F)(F)F)c3)CC2)cc1)S(C)(=O)=O` [1-18] displayed an IC50 of 100 to 500 nM. `N#Cc1ccc(N[C@H]2CC[C@@H](NC(=O)c3c[nH]c4ccccc34)CC2)cc1C(F)(F)F` [1-19] showed an IC50 below 100 nM. `N#Cc1ccc(N[C@H]2CC[C@@H](NC(=O)c3ccc4nccn4c3)CC2)cc1C(F)(F)F` [1-20] had an IC50 of 100 to 500 nM.

The experiment is the same for the next values; noted with them: CHO cells stably expressing human MRGPRX2; versus 0.3 uM Cortistatin-14 agonist; IP-1 HTRF readout; read-out: MRGPR2 Antagonist Activity.
For `N=C(N)Nc1ccc(C(=O)N[C@H]2CC[C@@H](Nc3cc(C(F)(F)F)nc(C(F)(F)F)c3)CC2)cc1` (single isomer, unassigned) [4-55], the IC50 is below 100 nM. Still for that read-out and setting: then `COc1ccc(C(=O)N[C@H]2CCC[C@@H](Nc3cc(C(F)(F)F)cc(C(F)(F)F)c3)C2)cc1` (stereo in doubt) [example 5, N-((1S,3R)-3-((3,5-bis(trifluoromethyl)phenyl)amino)cyclohexyl)-4-methoxybenzamide], with 1000 to 2500 nM. Same read-out and setting: the value for `O=C(N[C@H]1CC[C@@H](Nc2cc(C(F)(F)F)nc(C(F)(F)F)c2)CC1)c1ccc(F)cc1` [1-1] was 100 to 500 nM. For the compound `CN(C)c1ccc(C(=O)N[C@H]2CC[C@@H](Nc3cc(C(F)(F)F)nc(C(F)(F)F)c3)CC2)cc1` [1-2], the IC50 lay within 100 to 500 nM.

Regarding `COc1ccc(C(=O)N[C@H]2CC[C@@H](Nc3cc(C(F)(F)F)nc(C(F)(F)F)c3)CC2)cc1` [1-3], the IC50 lay in the range of 100 to 500 nM.

With `N#Cc1cccc(C(=O)N[C@H]2CC[C@@H](Nc3cc(C(F)(F)F)nc(C(F)(F)F)c3)CC2)c1` [1-4], the IC50 lay within 1000 to 2500 nM. Turning to `Cc1ccoc1C(=O)N[C@H]1CC[C@@H](Nc2cc(C(F)(F)F)nc(C(F)(F)F)c2)CC1` [1-5], the IC50 was 1000 to 2500 nM. For the compound `COc1ccc(C(=O)N[C@@H]2CCC[C@H](Nc3nc(C(F)(F)F)nc4c3CCC4)C2)cc1` [1-6], the IC50 lay within 1000 to 2500 nM. Regarding `COc1cc(N[C@H]2CC[C@@H](NC(=O)c3ccc(F)cc3)CC2)nc(C(F)(F)F)n1` [1-7], the IC50 is 1000 to 2500 nM. For `CN(C)c1nc(N[C@H]2CC[C@@H](NC(=O)c3ccc(F)cc3)CC2)cc(C(F)(F)F)n1` [1-8], the IC50 lay in the range of 501 to 1000 nM. On to `O=C(N[C@H]1CC[C@@H](Nc2cc(C(F)(F)F)nc(N3CCCC3)n2)CC1)c1ccc(F)cc1` [1-9], for which the IC50 lay within 1000 to 2500 nM.

`CN(C)c1nc(N[C@H]2CC[C@@H](NC(=O)c3ccccc3)CC2)cc(C(F)(F)F)n1` [1-10]: the IC50 fell in the range of 501 to 1000 nM. With `O=C(N[C@H]1CC[C@@H](Nc2nc(C(F)(F)F)nc3c2CCCC3)CC1)c1ccc(F)cc1` [1-11], the IC50 lay within 1000 to 2500 nM.

Turning to `N#Cc1ccc(N[C@H]2CC[C@@H](NC(=O)c3cccc4[nH]ccc34)CC2)cc1C(F)(F)F` [1-12], the IC50 is below 100 nM. In the case of `CN(C)c1ccc(C(=O)N[C@H]2CC[C@@H](Nc3ccc(C#N)c(C(F)(F)F)c3)CC2)c(F)c1` [1-13], the IC50 was in the range of 100 to 500 nM.

`CC(C)S(=O)(=O)Nc1ccc(C(=O)N[C@H]2CC[C@@H](Nc3ccc(C#N)c(C(F)(F)F)c3)CC2)cc1` [1-14]: the IC50 is below 100 nM. Turning to `N#Cc1ccc(N[C@H]2CC[C@@H](NC(=O)c3csc(N)n3)CC2)cc1C(F)(F)F` [1-15], the IC50 was 100 to 500 nM. Still for that read-out and setting: the value for `CN(C)c1cccc(C(=O)N[C@H]2CC[C@@H](Nc3ccc(C#N)c(C(F)(F)F)c3)CC2)c1` [1-16] was 100 to 500 nM; that for `CN(C)c1ccc(C(=O)N[C@H]2CC[C@@H](Nc3ccc(C#N)c(C(F)(F)F)c3)CC2)cc1` [1-21] was below 100 nM; that for `N#Cc1ccc(N[C@H]2CC[C@@H](NC(=O)c3ccc(F)cc3)CC2)cc1C(F)(F)F` [1-22] was 100 to 500 nM. Turning to `COc1cccc(C(=O)N[C@H]2CC[C@@H](Nc3ccc(C#N)c(C(F)(F)F)c3)CC2)c1` [1-23], the IC50 lay in the range of 100 to 500 nM. Still for that read-out and setting: the value for `N#Cc1ccc(N[C@H]2CC[C@@H](NC(=O)c3cccc4ncsc34)CC2)cc1C(F)(F)F` [1-24] was 1000 to 2500 nM; that for `N#Cc1ccc(N[C@H]2CC[C@@H](NC(=O)c3ccc(N4CCOCC4)cc3)CC2)cc1C(F)(F)F` [1-25] was 100 to 500 nM.

On to `CN(C)c1ccc(C(=O)N[C@H]2CC[C@@H](Nc3cc(N(C)C)nc(C(F)(F)F)c3)CC2)cc1` [2-1], for which the IC50 fell in the range of 1000 to 2500 nM. The same measure, in the same setting: then `COc1ccc(C(=O)N[C@H]2CC[C@@H](Nc3ccc(F)c(C(F)(F)F)c3)CC2)cc1` [2-2], with 501 to 1000 nM; and `Cc1cc(N[C@H]2CC[C@@H](NC(=O)c3ccc4nccn4c3)CC2)cc(C(F)(F)F)c1C#N` [2-3], with below 100 nM. Consider `COc1ccc(C(=O)N[C@H]2CC[C@@H](Nc3cc(C(F)(F)F)nc(N(C)C(C)C)n3)CC2)cc1` [3-1], for which the IC50 lay in the range of 1000 to 2500 nM. On the same count and under the same terms, then `COc1cccc(C(=O)N[C@H]2CC[C@@H](Nc3cc(C(F)(F)F)nc(C(F)(F)F)c3)CC2)c1` [4-1], with 100 to 500 nM. As to `O=C(N[C@H]1CC[C@@H](Nc2cc(C(F)(F)F)nc(C(F)(F)F)c2)CC1)n1cccc1` [4-2], the IC50 was in the range of 100 to 500 nM. Turning to `CNC(=O)Nc1cccc(C(=O)N[C@H]2CC[C@@H](Nc3cc(C(F)(F)F)nc(C(F)(F)F)c3)CC2)c1` [4-3], the IC50 was in the range of 100 to 500 nM. The same measure, in the same setting: the value for `CNc1ccc(C(=O)N[C@H]2CC[C@@H](Nc3cc(C(F)(F)F)nc(C(F)(F)F)c3)CC2)cc1` [4-4] was 100 to 500 nM.

As for `CC(=O)Nc1cccc(C(=O)N[C@H]2CC[C@@H](Nc3cc(C(F)(F)F)nc(C(F)(F)F)c3)CC2)c1` [4-5], the IC50 is 100 to 500 nM. For `O=C(N[C@H]1CC[C@@H](Nc2cc(C(F)(F)F)nc(C(F)(F)F)c2)CC1)c1cccc2[nH]ccc12` [4-6], the IC50 lay in the range of 100 to 500 nM.

As for `O=C1Nc2c(C(=O)N[C@H]3CC[C@@H](Nc4cc(C(F)(F)F)nc(C(F)(F)F)c4)CC3)cccc2C1=O` [4-7], the IC50 was in the range of 1000 to 2500 nM. Turning to `Cc1cc2[nH]cnc2cc1C(=O)N[C@H]1CC[C@@H](Nc2cc(C(F)(F)F)nc(C(F)(F)F)c2)CC1` [4-8], the IC50 was in the range of 100 to 500 nM. Regarding `O=C(N[C@H]1CC[C@@H](Nc2cc(C(F)(F)F)nc(C(F)(F)F)c2)CC1)c1cccc2ncsc12` [4-9], the IC50 was 100 to 500 nM. With `CS(=O)(=O)Nc1cccc(C(=O)N[C@H]2CC[C@@H](Nc3cc(C(F)(F)F)nc(C(F)(F)F)c3)CC2)c1` [4-10], the IC50 was in the range of 100 to 500 nM. Regarding `CC(C#N)c1cccc(C(=O)N[C@H]2CC[C@@H](Nc3cc(C(F)(F)F)nc(C(F)(F)F)c3)CC2)c1` (stereo partly shown) [4-11], the IC50 lay within 100 to 500 nM. On the same count and under the same terms, then `CCn1nccc1C(=O)N[C@H]1CC[C@@H](Nc2cc(C(F)(F)F)nc(C(F)(F)F)c2)CC1` [4-12], with 501 to 1000 nM; and `N#Cc1ccc(C(=O)N[C@H]2CC[C@@H](Nc3cc(C(F)(F)F)nc(C(F)(F)F)c3)CC2)cc1` [4-13], with above 2500 nM; and `O=C(N[C@H]1CC[C@@H](Nc2cc(C(F)(F)F)nc(C(F)(F)F)c2)CC1)c1ccc(Cl)cc1` [4-14], with 501 to 1000 nM.

As for `CN1CCCc2ccc(C(=O)N[C@H]3CC[C@@H](Nc4cc(C(F)(F)F)nc(C(F)(F)F)c4)CC3)cc21` [4-15], the IC50 is 1000 to 2500 nM.

For the compound `CC(C)C(=O)Nc1cccc(C(=O)N[C@H]2CC[C@@H](Nc3cc(C(F)(F)F)nc(C(F)(F)F)c3)CC2)c1` [4-16], the IC50 fell in the range of 501 to 1000 nM. Regarding `CN(C)c1ccc(C(=O)N[C@H]2CC[C@@H](Nc3cc(C(F)(F)F)nc(N(C)C)n3)CC2)cc1` [4-17], the IC50 fell in the range of 501 to 1000 nM.

In the case of `CN(C)c1nc(N[C@H]2CC[C@@H](NC(=O)c3cccc(C#N)c3)CC2)cc(C(F)(F)F)n1` [4-18], the IC50 is 1000 to 2500 nM. Same read-out and setting: the value for `CN1CCCc2c(C(=O)N[C@H]3CC[C@@H](Nc4cc(C(F)(F)F)nc(C(F)(F)F)c4)CC3)cccc21` [4-19] was 1000 to 2500 nM. Same read-out and setting: the value for `N=C(N)Nc1ccc(C(=O)N[C@H]2CC[C@@H](Nc3cc(C(F)(F)F)nc(C(F)(F)F)c3)CC2)cc1` [4-20] was 501 to 1000 nM.

Consider `CN1CCCc2cc(C(=O)N[C@H]3CC[C@@H](Nc4cc(C(F)(F)F)nc(C(F)(F)F)c4)CC3)ccc21` [4-21], for which the IC50 was 501 to 1000 nM. On to `O=C(N[C@H]1CC[C@@H](Nc2cc(C(F)(F)F)nc(C(F)(F)F)c2)CC1)c1c[nH]c2ccccc12` [4-22], for which the IC50 is 100 to 500 nM.

As for `CN(c1ccc(C(=O)N[C@H]2CC[C@@H](Nc3cc(C(F)(F)F)nc(C(F)(F)F)c3)CC2)cc1)S(C)(=O)=O` [4-23], the IC50 lay in the range of 100 to 500 nM. On to `Cc1cc(C)n(-c2ccc(C(=O)N[C@H]3CC[C@@H](Nc4cc(C(F)(F)F)nc(C(F)(F)F)c4)CC3)cc2)n1` [4-24], for which the IC50 fell in the range of 501 to 1000 nM.

The values are drawn from patent publication US11952346B2, “Modulators of mas-related G-protein receptor X2 and related products and methods” (Escient Pharmaceuticals, Inc., priority 2020, dated 2024).
